Assay results taken from ChEMBL document CHEMBL1201862, “PubChem BioAssay data set” (2004).
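Growth conditions: 96-well plates. Treatment: test compound, 48 hours, 5 concentrations. Analysis: linear interpolation between bracketing concentrations; unreached endpoints set to highest concentration. GI50: concentration for 50% inhibition of growth.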 Activity calls are given as the source filed them. No stated cut-off is given here; in the data, active = GI50 up to about 1.1 µM and inactive = higher.

What was measured:
Assay in all cases: NCI anticancer screen, dose series, 48 h
[1] = system: DLD-1
[2] = system: DMS-114
[3] = system: DMS-273
[4] = system: HOP-18
[5] = system: KM-20L2
[6] = system: LXFL 529
[7] = system: RXF 631
[8] = system: SNB-78
[9] = system: XF498

Measured: GI50

Oc1ccc2c(c1)OCC1(O)Cc3cc(O)c(O)cc3C21 (stereo not drawn)
inactive: [1] 17.3 µM | [2] 26.7 µM | [3] 35.8 µM | [4] 18.3 µM | [5] 38.3 µM | [6] 18.5 µM | [7] 41 µM | [8] 14.7 µM | [9] 15.2 µM

COc1cc2c(c(O)c1O)-c1ccc(OC)c(=O)cc1C(NC(C)=O)CC2 (stereo not drawn)
inactive: [1] 29.6 µM | [3] 5.07 µM | [4] > 22.1 µM | [5] 3.8 µM | [6] 5.25 µM | [7] 38 µM | [8] 4.54 µM | [9] 6.18 µM

CCCC(=O)Oc1ccc(/C=N/NC(N)=S)nc1
inactive: [1] > 100 µM | [2] 38.2 µM | [3] > 100 µM | [4] > 100 µM | [5] > 100 µM | [6] > 100 µM | [8] > 100 µM

N#Cc1ccc(Cc2ccccn2)cc1Cl
inactive: [1] > 100 µM | [2] > 100 µM | [3] > 100 µM | [4] > 100 µM | [6] > 100 µM | [7] > 100 µM | [8] > 100 µM

Cc1cc([N+](=O)[O-])c(C)c2c1[nH]c1ccc(O)cc12
inactive: [1] 16.8 µM | [2] 66.4 µM | [3] > 100 µM | [4] 55.1 µM | [8] > 100 µM | [9] > 100 µM

BrCc1ccc2ccc3ccc(CBr)nc3c2n1
inactive: [2] 3.85 µM | [3] 1.77 µM | [4] 1.83 µM | [5] 3.28 µM | [6] 1.75 µM | [8] 2.13 µM

CCCCCCCC(=O)OCC1OC(OC)C(NC(=O)N(CCCl)N=O)C(O)C1O (stereo not drawn)
inactive: [1] 11.9 µM | [2] 11.9 µM | [3] 2.9 µM | [4] 18.5 µM | [5] 20.8 µM | [6] 16.9 µM | [7] 2.48 µM | [8] 22.9 µM | [9] 10.2 µM

CCOC(=O)C12CCCC1(O)N(NC(N)=O)C(C)=C2C(=O)OC (stereo not drawn)
inactive: [1] > 100 µM | [2] > 100 µM | [3] > 100 µM | [4] > 100 µM | [5] > 100 µM | [6] > 100 µM | [7] > 100 µM | [8] > 100 µM | [9] > 100 µM

CCOC(=O)NC/C=C/COC1CCCCO1 (stereo not drawn)
inactive: [1] > 100 µM | [2] > 100 µM | [3] > 100 µM | [4] > 100 µM | [5] > 100 µM | [6] > 100 µM | [8] > 100 µM

COc1ccc(C(=O)C(c2ccc(OCc3ccccc3)cc2)c2ccc(OCc3ccccc3)cc2)cc1
inactive: [1] > 100 µM | [2] > 100 µM | [3] > 100 µM | [5] > 100 µM | [7] 2.67 µM | [8] > 100 µM | [9] > 100 µM

COC(=O)c1ccc(C=C(C#N)C#N)cc1
inactive: [1] 22.2 µM | [2] 19.2 µM | [3] 17.4 µM | [4] 36.1 µM | [5] 30.6 µM | [6] 18.3 µM | [7] 28.2 µM

O=C(CC1(O)C(=O)Nc2c(Cl)ccc(Cl)c21)c1ccco1 (stereo not drawn)
inactive: [1] 39.7 µM | [2] 18 µM | [3] 34.6 µM | [4] > 100 µM | [5] 37.8 µM | [6] 14 µM | [7] 26.4 µM | [8] 51.8 µM | [9] 11.9 µM

Nc1ccc2nc(Nc3ccc(F)cc3)cnc2c1
inactive: [1] > 100 µM | [2] 34.4 µM | [3] > 100 µM | [9] > 100 µM

O=C1[C@@H]2C3c4ccccc4C([C@@H]2C(=O)N1c1ccccc1)S3(=O)=O
inactive: [1] > 100 µM | [2] 37.9 µM | [3] > 100 µM | [4] > 100 µM | [5] > 100 µM | [6] > 100 µM | [7] 26.8 µM | [8] > 100 µM | [9] > 100 µM

CC1=CCC23C(C1)OC(Br)(C=CC2(C)O)C3(C)C (stereo not drawn)
inactive: [1] > 100 µM | [2] > 100 µM | [3] > 100 µM | [4] > 100 µM | [8] > 100 µM | [9] > 100 µM

O=C(N/C(=C\c1ccc(Cl)cc1)c1nc2ccccc2[nH]1)c1ccccc1
inactive: [1] 15.8 µM | [3] 21.1 µM | [4] 13.7 µM | [5] 2.44 µM | [6] 15.3 µM | [8] 29.3 µM | [9] 18.6 µM

N#Cc1c(-c2ccccc2)c(-c2ccccc2)cc2c(=O)c3ccc(Cl)cc3[nH]c12
inactive: [1] > 100 µM | [3] > 100 µM | [4] > 100 µM | [5] > 100 µM | [6] > 100 µM | [9] > 100 µM

O=C1[C@@H]2C(c3ccccc3Br)=NO[C@@H]2C(=O)N1c1ccc(Cc2ccc(N3C(=O)[C@H]4C(c5ccccc5Br)=NO[C@H]4C3=O)cc2)cc1
inactive: [1] > 100 µM | [2] > 100 µM | [3] > 100 µM | [4] 45.6 µM | [5] > 100 µM | [6] > 100 µM | [7] > 100 µM | [8] > 100 µM | [9] 67.9 µM

Cc1cc(O)nc(CNC(=O)c2ccc3ccccc3c2)n1
inactive: [1] > 100 µM | [2] > 100 µM | [3] > 100 µM | [4] > 100 µM | [5] > 100 µM | [6] > 100 µM | [7] > 100 µM | [9] > 100 µM

CCn1c(C)nc([N+](=O)[O-])c1Sc1ncc[nH]1
inactive: [1] 30.5 µM | [2] 34.4 µM | [3] 57.1 µM | [4] 4.8 µM | [6] 26.1 µM | [7] 24.7 µM | [8] 33.7 µM | [9] 43.2 µM

COC(=O)c1cc2c(=O)n(C)c3ccccc3n2c1C(=O)OC
inactive: [1] 30.1 µM | [2] > 100 µM | [3] 51.6 µM | [5] 53.3 µM | [6] > 100 µM | [7] > 100 µM | [8] > 100 µM | [9] 20.4 µM

Nc1ccccc1C(=O)/C=C/c1c(O)ccc2ccccc12
inactive: [1] > 100 µM | [2] > 100 µM | [3] > 100 µM | [4] > 100 µM | [5] > 100 µM | [6] > 100 µM | [7] > 100 µM | [8] > 100 µM

COc1ccc2c(c1)O[C@@H]1c3ccc(OC)cc3OC[C@H]21
inactive: [1] 45.2 µM | [2] 27.5 µM | [3] 14.1 µM | [6] 28.8 µM | [8] 33.8 µM | [9] 25.6 µM

COC(=O)C1C=CCON2CCc3c(n(S(=O)(=O)c4ccccc4)c4ccccc34)C12 (stereo not drawn)
inactive: [1] 10.7 µM | [2] 41.2 µM | [3] 48.8 µM | [4] 64.6 µM | [5] 42.1 µM | [6] 73.8 µM | [8] > 100 µM

O=C1CC[C@H](NC(=O)Cc2ccccc2)C(=O)N1 [ANTINEOPLASTON A10]
inactive: [1] > 1250 µM | [3] > 1250 µM | [4] > 1250 µM | [5] > 1250 µM | [6] > 1250 µM | [9] > 1250 µM
